# Measured values reported in patent US10689377B2 (Mirati Therapeutics, Inc., priority 2017, dated 2020).
# Biological target: KRas G12C (Homo sapiens, UniProt P01116, G12C)
# Assay: Cellular inhibition of KRas G12C measured by Phospho-ERK in NCI-H358 cells
# Format: cell-based
# Conditions: pERK(Thr202/Tyr204) normalized with GAPDH, NCI-H358 cells, 3 hours; read-out: IC50
# How it was run: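 NCI-H358 cells treated 3 h with compound (0.5% DMSO final), then fixed and methanol-permeabilised. In-cell immunofluorescence measured pERK(Thr202/Tyr204) normalised to GAPDH as percent of DMSO control. IC50 from a 4-parameter dose-response fit.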
# KRas G12C, sequence (P01116 1-188 isoform P01116-2 G12C): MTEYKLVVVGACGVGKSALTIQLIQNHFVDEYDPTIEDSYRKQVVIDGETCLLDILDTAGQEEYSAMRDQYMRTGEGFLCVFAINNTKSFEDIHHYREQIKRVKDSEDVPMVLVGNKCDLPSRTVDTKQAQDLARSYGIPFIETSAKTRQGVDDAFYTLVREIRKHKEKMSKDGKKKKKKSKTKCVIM
row,Structure (SMILES),IC50
1,"C=CC(=O)N1CCN(c2nc(OC[C@@H]3CCCN3C)nc3c2CCN(c2ccnc4ccccc24)C3)CC1CC#N (stereo partly drawn) [Example 295, 2-[4-[2-[[(2S)-1-methylpyrrolidin-2-yl]methoxy]-7-(4-quinolyl)-6,8-dihydro-5H-pyrido[3,4-d]pyrimidin-4-yl]-1-prop-2-enoyl-piperazin-2-yl]acetonitrile]",> 1000 nM
2,"C=CC(=O)N1CCN(c2nc(OCCN(C)C)nc3c2CCN(c2ccccc2C(F)(F)F)C3)CC1CC#N (centres unmarked) [Example 296, 2-[4-[2-[2-(dimethylamino)ethoxy]-7-[2-(trifluoromethyl)phenyl]-6,8-dihydro-5H-pyrido[3,4-d]pyrimidin-4-yl]-1-prop-2-enoyl-piperazin-2-yl]acetonitrile]",0.1 to 1000 nM
3,"C=CC(=O)N1CCN(c2nc(OCCCN3C[C@H]4C[C@@H]3CO4)nc3c2CCN(c2ccccc2C(F)(F)F)C3)CC1CC#N (stereo partly drawn) [Example 297, 2-[4-[2-[3-[(1R,4R)-2-oxa-5-azabicyclo[2.2.1]heptan-5-yl]propoxy]-7-[2-(trifluoromethyl)phenyl]-6,8-dihydro-5H-pyrido[3,4-d]pyrimidin-4-yl]-1-prop-2-enoyl-piperazin-2-yl]acetonitrile]",0.1 to 1000 nM
4,"C=CC(=O)N1CCN(c2nc(OC[C@@H]3CCN(C)C3)nc3c2CCN(c2ccccc2C(F)(F)F)C3)CC1CC#N (stereo partly drawn) [Example 298, 2-(1-acryloyl-4-(2-(((R)-1-methylpyrrolidin-3-yl)methoxy)-7-(2-(trifluoromethyl)phenyl)-5,6,7,8-tetrahydropyrido[3,4-d]pyrimidin-4-yl)piperazin-2-yl)acetonitrile]",0.1 to 1000 nM
5,"C=CC(=O)N1CCN(c2nc(OC[C@H]3CCCN3C)nc3c2CCN(c2ccccc2C(F)(F)F)C3)CC1CC#N (stereo partly drawn) [Example 299, 2-[4-[2-[[(2R)-1-methylpyrrolidin-2-yl]methoxy]-7-[2-(trifluoromethyl)phenyl]-6,8-dihydro-5H-pyrido[3,4-d]pyrimidin-4-yl]-1-prop-2-enoyl-piperazin-2-yl]acetonitrile]",0.1 to 1000 nM
6,"C=CC(=O)N1CCN(c2nc(OCCN(CC)CC)nc3c2CCN(c2ccccc2C(F)(F)F)C3)CC1CC#N (centres unmarked) [Example 300, 2-[4-[2-[2-(diethylamino)ethoxy]-7-[2-(trifluoromethyl)phenyl]-6,8-dihydro-5H-pyrido[3,4-d]pyrimidin-4-yl]-1-prop-2-enoyl-piperazin-2-yl]acetonitrile]",0.1 to 1000 nM
7,"C=CC(=O)N1CCN(c2nc(OC[C@@H]3CCC(C)(C)N3C)nc3c2CCN(c2cccc4ccccc24)C3)CC1CC#N (stereo partly drawn) [Example 301, 2-[4-[7-(1-naphthyl)-2-[[(2S)-1,5,5-trimethylpyrrolidin-2-yl]methoxy]-6,8-dihydro-5H-pyrido[3,4-d]pyrimidin-4-yl]-1-prop-2-enoyl-piperazin-2-yl]acetonitrile]",0.1 to 1000 nM
8,C=CC(=O)N1CCN(c2nc(OC[C@@H]3CCCN3C)nc3c2CCN(c2cccc4ccc(F)cc24)C3)CC1CC#N (some centres unmarked) [Example 302],0.1 to 1000 nM
9,"C=CC(=O)N1CCN(c2nc(OCCN3CCCCC3)nc3c2CCN(c2cccc4ccccc24)C3)CC1CC#N (centres unmarked) [Example 303, 2-[4-[7-(1-naphthyl)-2-[2-(1-piperidyl)ethoxy]-6,8-dihydro-5H-pyrido[3,4-d]pyrimidin-4-yl]-1-prop-2-enoyl-piperazin-2-yl]acetonitrile]",0.1 to 1000 nM
10,"C=CC(=O)N1CCN(c2nc(OC[C@H]3CCCN3CCO)nc3c2CCN(c2cccc4ccccc24)C3)CC1CC#N (stereo partly drawn) [Example 304, 2-[4-[2-[[(2R)-1-(2-hydroxyethyl)pyrrolidin-2-yl]methoxy]-7-(1-naphthyl)-6,8-dihydro-5H-pyrido[3,4-d]pyrimidin-4-yl]-1-prop-2-enoyl-piperazin-2-yl]acetonitrile]",0.1 to 1000 nM
11,"C=CC(=O)N1CCN(c2nc(OC[C@@H]3CCCN3C)nc3c2CCN(c2cnccc2C#N)C3)C[C@@H]1CC#N [Example 305, 3-(4-((S)-4-acryloyl-3-(cyanomethyl)piperazin-1-yl)-2-(((S)-1-methylpyrrolidin-2-yl)methoxy)-5,6-dihydropyrido[3,4-d]pyrimidin-7(8H)-yl)isonicotinonitrile]",> 1000 nM
12,"C=CC(=O)N1CCN(c2nc(OC[C@@H]3C[C@@H](F)CN3C)nc3c2CCN(c2cccc4ccccc24)C3)C[C@@H]1CC#N [Example 306, 2-((S)-1-acryloyl-4-(2-(((2S,4R)-4-fluoro-1-methylpyrrolidin-2-yl)methoxy)-7-(naphthalen-1-yl)-5,6,7,8-tetrahydropyrido[3,4-d]pyrimidin-4-yl)piperazin-2-yl)acetonitrile]",0.1 to 1000 nM
13,"C=CC(=O)N1CCN(c2nc(OC[C@@H]3CCCN3C)nc3c2CCN(c2cccc(OC)c2F)C3)CC1CC#N (stereo partly drawn) [Example 307, 2-[4-[7-(2-fluoro-3-methoxy-phenyl)-2-[[(2S)-1-methylpyrrolidin-2-yl]methoxy]-6,8-dihydro-5H-pyrido[3,4-d]pyrimidin-4-yl]-1-prop-2-enoyl-piperazin-2-yl]acetonitrile]",> 1000 nM
14,"C=CC(=O)N1CCN(c2nc(OC[C@@H]3CCCN3C)nc3c2CCN(c2cccc(F)c2OC)C3)CC1CC#N (stereo partly drawn) [Example 308, 2-(1-acryloyl-4-(7-(3-fluoro-2-methoxyphenyl)-2-(((S)-1-methylpyrrolidin-2-yl)methoxy)-5,6,7,8-tetrahydropyrido[3,4-d]pyrimidin-4-yl)piperazin-2-yl)acetonitrile]",0.1 to 1000 nM
15,"C=CC(=O)N1CCN(c2nc(OC[C@@H]3CCCN3C)nc3c2CCN(c2cccc4cccc(C)c24)C3)CC1CC#N (stereo partly drawn) [Example 309, 2-(1-acryloyl-4-(7-(8-methylnaphthalen-1-yl)-2-(((S)-1-methylpyrrolidin-2-yl)methoxy)-5,6,7,8-tetrahydropyrido[3,4-d]pyrimidin-4-yl)piperazin-2-yl)acetonitrile]",0.1 to 1000 nM
16,"C=CC(=O)N1CCN(c2nc(OC[C@@H]3CCCN3C)nc3c2CCN(c2c(F)ccc4ccccc24)C3)CC1CC#N (stereo partly drawn) [Example 311, 2-(1-acryloyl-4-(7-(2-fluoronaphthalen-1-yl)-2-(((S)-1-methylpyrrolidin-2-yl)methoxy)-5,6,7,8-tetrahydropyrido[3,4-d]pyrimidin-4-yl)piperazin-2-yl)acetonitrile]",0.1 to 1000 nM
17,"C=CC(=O)N1CCN(c2nc(OC[C@@H]3C[C@@H](O)CN3C)nc3c2CCN(c2ccccc2C(F)(F)F)C3)CC1CC#N (stereo partly drawn) [Example 312, 2-[4-[2-[[(2S,4R)-4-hydroxy-1-methyl-pyrrolidin-2-yl]methoxy]-7-[2-(trifluoromethyl)phenyl]-6,8-dihydro-5H-pyrido[3,4-d]pyrimidin-4-yl]-1-prop-2-enoyl-piperazin-2-yl]acetonitrile]",0.1 to 1000 nM
18,"C=CC(=O)N1CCN(c2nc(OC[C@@H]3CCN(C)C3)nc3c2CCN(c2c(C(F)(F)F)ccc4[nH]ncc24)C3)CC1CC#N (stereo partly drawn) [Example 313, 2-[4-[2-[[(3R)-1-methylpyrrolidin-3-yl]methoxy]-7-[5-(trifluoromethyl)-1H-indazol-4-yl]-6,8-dihydro-5H-pyrido[3,4-d]pyrimidin-4-yl]-1-prop-2-enoyl-piperazin-2-yl]acetonitrile]",0.1 to 1000 nM
19,"C=CC(=O)N1CCN(c2nc(OC[C@@H]3CCCN3C)nc3c2CCN(c2cc(OC)cc4ccccc24)C3)C[C@@H]1CC#N [Example 314, 2-[(2S)-4-[7-(3-methoxy-1-naphthyl)-2-[[(2S)-1-methylpyrrolidin-2-yl]methoxy]-6,8-dihydro-5H-pyrido[3,4-d]pyrimidin-4-yl]-1-prop-2-enoyl-piperazin-2-yl]acetonitrile]",0.1 to 1000 nM
20,"C=CC(=O)N1CCN(c2nc(OC[C@@H]3C[C@@H](O)CN3C)nc3c2CCN(c2cccc4ccccc24)C3)C[C@@H]1CC#N [Example 315, 2-[(2S)-4-[2-[[(2S,4R)-4-hydroxy-1-methyl-pyrrolidin-2-yl]methoxy]-7-(1-naphthyl)-6,8-dihydro-5H-pyrido[3,4-d]pyrimidin-4-yl]-1-prop-2-enoyl-piperazin-2-yl]acetonitrile]",0.1 to 1000 nM
21,"C=CC(=O)N1CCN(c2nc(OC[C@@H]3CCCN3C)nc3c2CCN(c2ccc(F)c4ccccc24)C3)C[C@@H]1CC#N [Example 316, 2-((S)-1-acryloyl-4-(7-(4-fluoronaphthalen-1-yl)-2-(((S)-1-methylpyrrolidin-2-yl)methoxy)-5,6,7,8-tetrahydropyrido[3,4-d]pyrimidin-4-yl)piperazin-2-yl)acetonitrile]",0.1 to 1000 nM
22,C=CC(=O)N1CCN(c2nc(OC[C@@H]3CCCN3C)nc3c2CCN(c2cc(O)cc4ccccc24)C3)C[C@@H]1CC#N [Example 317],0.1 to 1000 nM
23,"C=CC(=O)N1CCN(c2nc(OC[C@H]3CCCN3C)nc3c2CCN(c2ccc(F)c4ccccc24)C3)C[C@@H]1CC#N [Example 318, 2-[(2S)-4-[7-(4-fluoro-1-naphthyl)-2-[[(2R)-1-methylpyrrolidin-2-yl]methoxy]-6,8-dihydro-5H-pyrido[3,4-d]pyrimidin-4-yl]-1-prop-2-enoyl-piperazin-2-yl]acetonitrile]",0.1 to 1000 nM
24,"C=CC(=O)N1CCN(c2nc(OC[C@H]3CCCN3C)nc3c2CCN(c2cccc(Cl)c2C(F)(F)F)C3)C[C@@H]1CC#N [Example 319, 2-((S)-1-acryloyl-4-(7-(3-chloro-2-(trifluoromethyl)phenyl)-2-(((R)-1-methylpyrrolidin-2-yl)methoxy)-5,6,7,8-tetrahydropyrido[3,4-d]pyrimidin-4-yl)piperazin-2-yl)acetonitrile]",0.1 to 1000 nM
25,"C=CC(=O)N1CCN(c2nc(OC[C@@H]3CCCN3C(C)C)nc3c2CCN(c2cccc4ccccc24)C3)C[C@@H]1CC#N [Example 320, 2-[(2S)-4-[2-[[(2S)-1-isopropylpyrrolidin-2-yl]methoxy]-7-(1-naphthyl)-6,8-dihydro-5H-pyrido[3,4-d]pyrimidin-4-yl]-1-prop-2-enoyl-piperazin-2-yl]acetonitrile]",0.1 to 1000 nM
26,"C=CC(=O)N1CCN(c2nc(OC[C@@H]3CCCN3C)nc3c2CCN(c2c(O)cccc2F)C3)[C@@H](C)C1 [Example 321, 1-[(3S)-4-[7-(2-fluoro-6-hydroxy-phenyl)-2-[[(2S)-1-methylpyrrolidin-2-yl]methoxy]-6,8-dihydro-5H-pyrido[3,4-d]pyrimidin-4-yl]-3-methyl-piperazin-1-yl]prop-2-en-1-one]",> 1000 nM
